Reference: paper PMC4657239, “BluB/CobT2 fusion enzyme activity reveals mechanisms responsible for production of active form of vitamin B12 by Propionibacterium freudenreichii” (Microbial Cell Factories, 2015)

Molecular target: T1, BluB/CobT2 (Propionibacterium freudenreichii, UniProt D7GJ95)
T1 construct: E. coli KRX, pFN18A; HaloTag removed by HaloTEV; N-terminal SDNA replaces initial Met
Experiment: LC-ESI-MS of alpha-ribazole phosphate formed
Assay type: biochemical
Details: 200 µM NaMN, 100 µM DMBI, 1 mM DTT, Tris-HCl pH 8.5, room temperature; CobT activity

T1 sequence (D7GJ95 entry or part of it): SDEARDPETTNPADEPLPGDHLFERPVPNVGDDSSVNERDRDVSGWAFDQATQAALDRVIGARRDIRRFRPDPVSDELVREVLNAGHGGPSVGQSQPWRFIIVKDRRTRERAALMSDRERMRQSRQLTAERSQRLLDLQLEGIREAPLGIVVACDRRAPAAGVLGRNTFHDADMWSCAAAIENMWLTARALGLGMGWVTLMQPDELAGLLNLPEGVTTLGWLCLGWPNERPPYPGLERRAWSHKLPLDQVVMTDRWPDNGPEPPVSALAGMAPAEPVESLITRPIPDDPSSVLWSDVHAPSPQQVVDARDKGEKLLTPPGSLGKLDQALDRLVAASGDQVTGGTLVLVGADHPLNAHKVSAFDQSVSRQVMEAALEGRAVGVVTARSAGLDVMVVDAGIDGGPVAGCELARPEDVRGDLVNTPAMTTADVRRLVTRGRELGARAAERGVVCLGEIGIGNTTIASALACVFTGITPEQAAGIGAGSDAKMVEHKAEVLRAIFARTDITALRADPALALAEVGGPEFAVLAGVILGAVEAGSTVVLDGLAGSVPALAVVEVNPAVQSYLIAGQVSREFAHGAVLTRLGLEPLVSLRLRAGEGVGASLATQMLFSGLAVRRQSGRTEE

O=C([O-])c1ccc[n+]([C@@H]2O[C@H](COP(=O)(O)O)[C@@H](O)[C@H]2O)c1 [NaMN]
LC-ESI-MS of alpha-ribazole phosphate formed: confirms that NaMN is the preferred substrate
